According to patent US12421257B2, “Compositions and methods for inhibiting group II intron RNA” (YALE UNIVERSITY, priority 2018, dated 2025):
≈ marks a conversion by molar mass, not a printed value. Entries after “also recorded” stand apart in the source; their conditions may differ.

What was measured:
[1] = target: ai5γ group II intron; experiment: Radioanalytic self-splicing assay of SE RNA (Ki); assay type: biochemical, Saccharomyces cerevisiae; settings: 8 mM MgCl2, 100 mM KCl, pH 7.5, 30° C.
Procedure: Internally labeled SE RNA (2 nM) was incubated with various concentrations of inhibitor compound under near-physiological conditions (in 50 mM MOPS, pH 7.5, 8 mM MgCl2, 100 mM KCl) at 30° C. Aliquots at different time points were quenched and analyzed on 5% denaturing polyacrylamide gel as previously described (Daniels et al., 1996, Journal of molecular biology, 256:31-49). Data were fit to a single-exponential equation to determine the first order rate constants (kobs). The latter were then plotted against the concentration of the inhibitor and fit to the equation for non-competitive inhibition to determine Ki values: kobs=kmax/(1+[I]/Ki), where kobs and kmax are the first order rate constants measured in the presence and in the absence of the inhibitor, respectively, [I] is the concentration of the inhibitor and Ki is the inhibition constant. Experiments were performed four times for API-014, three times for APY-090, Intronistat A, and Intronistat B and twice for the remaining compounds to ensure reproducibility. Data represent average±s.e.m.

[2] = tested on: ai5γ group II intron (D135 ribozyme); experiment: Fluorescent D135 ribozyme cleavage assay (IC50); assay type: biochemical, Saccharomyces cerevisiae; settings: for IC50: D135 ribozyme cleavage of substrate 17/2 DL, 100 mM MgCl2, 500 mM KCl, 37° C., 10 minutes
Procedure: The D135 ribozyme (Su et al., 2005, Nucleic Acids Res, 33:6674-6687), fluorescently labeled oligo substrate 17/2 DL (FIG. 1A-FIG. 1D) (both at 20 nM final concentrations in 50 mM MOPS, pH 7.0, 100 mM MgCl2, 0.5M KCl), and the test compounds (final concentration of 10 μM in 50 mM MOPS, pH 7.0, 100 mM MgCl2, 0.5M KCl) were aliquoted onto black non-binding 384-well plates (Corning 3757) using the multidrop combi (ThermoFisherScientific) and pintool (V & P Scientific). The reaction mixtures were incubated at 37° C. for 45 minutes, then the reaction was quenched with 100 mM EDTA and fluorescence intensity was analyzed on a Tecan Infinite multimode plate reader (λex 520 nm, λem 560 nm, 5 nm bandwidth). Data were normalized to untreated wells and wells lacking the D135 ribozyme, and percent of inhibition was calculated using ActivityBase (IDBS). The Z′-factor was calculated as described (Zhang et al., 1999, J Biomol Screen, 4:67-73): Z′=1−3×(σp+σn)/|μp−μn|, • where μp and σn are mean value and standard deviation for the positive control (substrate only), and where μn and σn are mean value and standard deviation for the negative control (no compound). The average Z′-factor from the screen was 0.83±0.03. IC50 Measurement for the Small Molecule Inhibition of the D135 Ribozyme Cleavage Reaction.
Black 96-well plates (Corning 3695) were filled with 50 μl of solution containing 20 nM D135 ribozyme, 20 nM double-labeled substrate 17/2 DL and small molecule inhibitor in 50 mM MOPS, pH 7.0, 100 mM MgCl2 and 500 mM KCl. Small molecule inhibitors were tested at 19 different concentrations ranging from 5 nM to 1 mM. Plates were incubated at 37° C. for 10 minutes, then reaction mixtures were quenched with 100 mM EDTA and analyzed on the Synergy H1 plate reader (BioTek). Each experiment was performed in triplicate. Data were fit to a 4-parameter logistic function c+(d−c)/(1+(x/a)^b), where a is the IC50, b is the slope parameter, c is the minimum response and d is the maximum response. Data are reported as average±s.e.m

[3] = tested on: C. parapsilosis; experiment: MIC determination against C. parapsilosis; assay type: cell-based, Candida parapsilosis; settings: Lodderomyces parapsilosis; RPMI-1640, 35° C. or 37° C., turbidity after 24 and 48 hours
Procedure: Minimal inhibitory concentrations (MICs) for C. parapsilosis were determined in a final volume of 100 μl. Fresh stock solutions of control antifungal drugs (Amphotericin B and Itraconazole) and of test compounds were prepared at 3.2 mg/ml and at 12.8 mg/ml respectively in DMSO. After placing the stock in the first well, solutions of test compounds and antifungal controls were serially diluted 1:2 with DMSO into the first […] successive wells of a 12-well row on a 96-well plate (as described above). After dilution, 2.5 μl from each of these 10 wells were transferred onto a separate 96-well plate and diluted with 122.5 μl of RPMI-1640 medium (Sigma). Wells 11 and 12 contained 2.5 μl DMSO and 122.5 μl of RPMI-1640 as a positive growth control (no compound) and sterility control (no inoculum added). A 50 μl volume was taken from each of the RPMI dilutions (wells 1-12) and transferred to the wells of a third 96-well plate (assay plate), where they were mixed with an equal volume (50 μl) of freshly prepared inoculum of C. parapsilosis in RPMI-1640 medium, set at a density to provide the 0.5×10^3 to 2.5×10^3 colony forming units per 1 mL (except for the sterility control). Sterility control was mixed with 50 μl of sterile medium.
The final concentration range of the assay was 0.25-128 μg/ml for test compounds and 0.0625-32 μg/ml for Amphotericin B and Itraconazole. The final concentration of DMSO was 1%. The assay plate was incubated at 35° C. or 37° C. and visually analyzed for turbidity after 24 and 48 hours of incubation. The lowest compound concentration at which no growth was apparent is reported as the MIC. All experiments were performed in triplicate.

[4] = tested on: HEK-293T cells; experiment: Cytotoxicity in HEK-293T cells (Cell Titer Glo); assay type: cell-based, human; settings: Homo sapiens, cytotoxicity, 24 hours with compound, read-out: IC50 HEK-293
Procedure: HEK-293T cells were cultured in Dulbecco's Modified Eagle's Medium (DMEM) (Gibco) supplemented with 10% Fetal Bovine Serum (FBS, Gibco) and 100 U/ml of Penicillin-Streptomycin (Gibco) at 37° C. and 5% CO2. For the cytotoxicity experiments, cells were aliquoted into black 96-well plates with a clear bottom (Corning 3603) at a concentration of 10,000 cells per well. The cells were grown at 37° C., 5% CO2 for 5-6 hours, then the medium was replaced with the same medium without FBS and cells were grown at 37° C., 5% CO2 for 24 hours. Freshly prepared stock solutions of test compounds (12.8 mg/ml in DMSO) were serially diluted 1:2 with DMSO into the first 11 successive wells of a 12-well row on a 96-well plate as described above. Well 12 was used as a growth control (no compound). […] After incubation, cell viability was determined using the luminescent Cell Titer Glo cell viability assay (Promega), in which 100 μl of the assay reagent was added to each well of the assay plate. After gentle shaking for 7-10 minutes, the plates were analyzed on a Synergy H1 plate reader (BioTek). Luminescence was plotted against the compound concentration and IC50 values were determined by fitting the data to a 4-parameter logistic function c+(d−c)/(1+(x/a)^b), where a is the IC50, b is the slope parameter, c is the minimum response and d is the maximum response. Experiments were replicated to ensure reproducibility.

SMILES: O=C1/C(=C/c2ccc(B(O)O)cc2)Oc2cc(O)cc(O)c21 [APY-006]
- Ki [1]: 55 µM

SMILES: O=C1/C(=C/c2ccc(O)c(O)c2)Oc2cc(O)cc(O)c21 [APY-007, (Z)-2-(3,4-Dihydroxybenzylidene)-4,6-dihydroxybenzofuran-3(2H)-one]
- IC50 [2]: > 100 µM
- In vitro inhibitory activity, SAR statement (in words) ([2]; relative to parent scaffold): nearly complete loss of activity; also recorded: inactivated both in vitro and in vivo
- Ki [1]: 156 ± 34 µM
- MIC [3]: > 128 µg/mL
- IC50 [4]: > 128 µg/mL

SMILES: O=C1/C(=C/c2cc(F)c(O)c(F)c2)Oc2cc(O)cc(O)c21 [APY-010]
- Ki [1]: 140 µM
- MIC [3]: > 128 µg/mL
- IC50 [4]: 0.55 µg/mL

SMILES: O=C1/C(=C/c2cc(O)c(O)c(O)c2)Oc2cc(O)ccc21 [APY-013]
- IC50 [2]: 16.7 µM
- Ki [1]: 16.5 µM
- MIC [3]: 32 µg/mL (≈ 112 µM)
- IC50 [4]: 19 µg/mL

SMILES: COc1cccc(/C=N/NC(=O)c2ccc(B(O)O)cc2)c1O [APY-018]
- Ki [1]: 660 µM

SMILES: O=C(N/N=C/c1ccccc1O)c1cc(O)c(O)c(O)c1 [APY-021]
- IC50 [2]: 14 µM
- Ki [1]: 9.4 µM
- MIC [3]: 32 µg/mL (≈ 111 µM)

SMILES: O=C(N/N=C/c1ccc(O)cc1O)c1cc(O)c(O)c(O)c1 [APY-022]
- IC50 [2]: 5.5 µM
- Ki [1]: 6.5 µM
- MIC [3]: 32 µg/mL (≈ 105 µM)
- IC50 [4]: 17.6 µg/mL

SMILES: COc1cc(/C=N/NC(=O)c2cc(O)c(O)c(O)c2)cc(O)c1O [APY-038]
- IC50 [2]: 1.3 µM
- Ki [1]: 1.1 µM
- MIC [3]: 8 µg/mL (≈ 23.9 µM)
- IC50 [4]: 15.9 µg/mL

SMILES: COc1cc(CCC(=O)c2cc(O)c(O)c(O)c2)cc(OC)c1OC [APY-069]
- IC50 [2]: 27 µM
- Ki [1]: 29 µM
- MIC [3]: 32 µg/mL (≈ 91.9 µM)
- IC50 [4]: > 128 µg/mL

SMILES: O=C(c1cc(O)c(O)c(O)c1)c1cc2cc(F)ccc2o1 [APY-070]
- IC50 [2]: 4.2 µM
- Ki [1]: 1 µM
- MIC [3]: 32 µg/mL (≈ 111 µM)
- IC50 [4]: > 128 µg/mL

SMILES: O=C(c1cc(O)c(O)c(O)c1)c1cc2c(ccc3ccccc32)o1 [APY-071]
- IC50 [2]: 0.3 µM
- Ki [1]: 0.15 µM
- MIC [3]: 16 µg/mL (≈ 50 µM)
- IC50 [4]: 6 µg/mL

SMILES: O=C1/C(=C/c2cc(O)c(O)c(O)c2)Oc2cc(O)cc(O)c21 [Compound 1, reference compound]
- IC50 [2]: 2.3 ± 0.4 µM
- IC50 ([2]; listed as compound 1): 2 µM
- Ki [1]: 2.1 ± 0.6 µM

SMILES: CN1CCC(CNC(=O)c2ccc3oc(C(=O)c4cc(O)c(O)c(O)c4)cc3c2)CC1 [NED-2023, N-((1-methylpiperidin-4-yl)methyl)-2-(3,4,5-trihydroxybenzoyl)-benzofuran-5-carboxamide]
- IC50 [2]: 6 ± 2 µM
- MIC [3]: 16 µg/mL (≈ 37.7 µM)
- IC50 [4]: 36 µg/mL

SMILES: CCCCNc1nc(-c2cc(O)c(O)c(O)c2)cs1 [NED-2034]
- IC50 [2]: > 1000 µM
- MIC [3]: 8 to 16 µg/mL (≈ 28.5 to 57.1 µM)
- IC50 [4]: 22 µg/mL

SMILES: O=C(Nc1cc(O)c(O)c(O)c1)N1CCN(c2ccc(Cl)c(Cl)c2)CC1 [NED-2035]
- IC50 [2]: 55 ± 4 µM
- MIC [3]: > 128 µg/mL
- IC50 [4]: 1.6 µg/mL

SMILES: COc1ccc(/C=N/NC(=O)c2cc(O)c(O)c(O)c2)c(OC)c1 [NED-2036, N′-(2,4-dimethoxybenzylidene)-3,4,5-trihydroxybenzohydrazide]
- IC50 [2]: 14 ± 1 µM
- MIC [3]: 8 µg/mL (≈ 24.1 µM)
- IC50 [4]: 8.2 µg/mL

SMILES: O=C(N/N=C/c1c(O)ccc2ccccc12)c1cc(O)c(O)c(O)c1 [NED-2037, (E)-3,4,5-trihydroxy-N′-((2-hydroxynaphthalen-1-yl)methylene)benzohydrazide]
- IC50 [2]: 1.8 ± 0.5 µM
- MIC [3]: 16 µg/mL (≈ 47.3 µM)
- IC50 [4]: 2.8 µg/mL

SMILES: Cc1[nH]c(/C=C/C(=O)c2cc(O)c(O)c(O)c2)c(C)c1C(=O)N1CCN(Cc2ccc(F)cc2)CC1 [NED-2040]
- IC50 [2]: > 1000 µM
- MIC [3]: 8 µg/mL (≈ 16.2 µM)
- IC50 [4]: 7.5 µg/mL

SMILES: CN(C)c1ccc(/C=N/NC(=O)c2cc(O)c(O)c(O)c2)cc1 [NED-2048, (E)-N′-(4-(dimethylamino)benzylidene)-3,4,5-trihydroxybenzohydrazide]
- IC50 [2]: 4 ± 1 µM
- MIC [3]: 4 to 8 µg/mL (≈ 12.7 to 25.4 µM)
- IC50 [4]: 9.8 µg/mL

SMILES: O=C(N/N=C/c1cccc2ccccc12)c1cc(O)c(O)c(O)c1 [NED-2134, (E)-3,4,5-trihydroxy-N′-(naphthalen-1-ylmethylene)benzohydrazide]
- IC50 [2]: 3.3 ± 1 µM
- MIC [3]: 2 to 4 µg/mL (≈ 6.21 to 12.4 µM)
- IC50 [4]: 4.2 µg/mL

SMILES: O=C(N/N=C/c1ccc2ccccc2c1)c1cc(O)c(O)c(O)c1 [NED-2135, (E)-3,4,5-trihydroxy-N′-(naphthalen-2-ylmethylene)benzohydrazide]
- IC50 [2]: 0.8 ± 0.2 µM
- MIC [3]: 2 µg/mL (≈ 6.21 µM)
- IC50 [4]: 2.4 µg/mL

SMILES: COc1ccc2cc(/C=N/NC(=O)c3cc(O)c(O)c(O)c3)ccc2c1 [NED-2136]
- IC50 [2]: 1.35 ± 0.15 µM
- MIC [3]: 2 µg/mL (≈ 5.68 µM)
- IC50 [4]: 1 µg/mL

SMILES: COc1ccc2ccccc2c1/C=N/NC(=O)c1cc(O)c(O)c(O)c1 [NED-2173, (E)-3,4,5-trihydroxy-N′-((2-methoxynaphthalen-1-yl)methylene)benzohydrazide]
- IC50 [2]: 6 ± 1 µM
- MIC [3]: 8 µg/mL (≈ 22.7 µM)
- IC50 [4]: 8.6 µg/mL

SMILES: C#CCOc1ccc2ccccc2c1/C=N/NC(=O)c1cc(O)c(O)c(O)c1 [NED-2174, (E)-3,4,5-trihydroxy-N′-((2-(prop-2-yn-1-yloxy)naphthalen-1-yl)methylene)benzohydrazide]
- IC50 [2]: 5 ± 1 µM
- MIC [3]: 4 to 8 µg/mL (≈ 10.6 to 21.3 µM)
- IC50 [4]: 2.7 µg/mL

SMILES: O=C(N/N=C/c1c(OCc2ccccn2)ccc2ccccc12)c1cc(O)c(O)c(O)c1 [NED-2175, (E)-3,4,5-trihydroxy-N′-((2-(pyridin-2-ylmethoxy)naphthalen-1-yl)methylene)benzohydrazide]
- IC50 [2]: 2.3 ± 0.8 µM
- MIC [3]: 4 to 8 µg/mL (≈ 9.31 to 18.6 µM)
- IC50 [4]: 14 µg/mL
